Measurements from ChEMBL document CHEMBL1201862, “PubChem BioAssay data set” (2004).
The source made the active and inactive calls.

Columns and labels:
[1] = molecular target: T1, Adenosylmethionine-8-amino-7-oxononanoate aminotransferase (Mycobacterium tuberculosis, UniProt P9WQ81); experiment: Mycobacterium tuberculosis BioA enzyme inhibitor Measured in Biochemical System Using Plate Reader - 2163-02_Inhibitor_Dose_CherryPick_Activity.; assay type: functional, Mycobacterium tuberculosis UT205
T1 sequence (P9WQ81 whole entry): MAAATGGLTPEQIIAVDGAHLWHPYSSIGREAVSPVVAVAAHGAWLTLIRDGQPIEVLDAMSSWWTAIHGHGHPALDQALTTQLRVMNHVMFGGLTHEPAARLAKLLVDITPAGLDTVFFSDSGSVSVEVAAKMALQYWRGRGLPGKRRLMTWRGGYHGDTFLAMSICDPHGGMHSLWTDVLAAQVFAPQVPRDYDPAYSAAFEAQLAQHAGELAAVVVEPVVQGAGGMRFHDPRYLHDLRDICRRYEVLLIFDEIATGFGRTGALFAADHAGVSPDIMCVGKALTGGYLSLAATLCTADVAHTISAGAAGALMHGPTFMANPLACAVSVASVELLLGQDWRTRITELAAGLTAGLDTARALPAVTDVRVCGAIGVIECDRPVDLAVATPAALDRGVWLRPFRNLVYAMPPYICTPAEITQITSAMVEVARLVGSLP

[2] = viability of PTEN-deleted HCT116 cells – cell-based, HCT116 PTEN knockout, dose response (AID 1047); assay type: functional;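 further: HCT116 colon tumor cells with PTEN knocked out; cells exposed to compound for 60 hours before readout; potency for loss of cell viability measured by luminescence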
[3] = viability of HCT116 lacking mutant beta-catenin – cell-based, human colon tumor, dose response (AID 1045); assay type: functional;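 further: HCT116 colon tumor cells with beta catenin knocked out; cells exposed to compound for 60 hours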
[4] = HPDE-C7 pancreatic duct cell viability loss – fluorescence, HTS (AID 430); assay type: functional, cell-based; conditions: Homo sapiens
[5] = viability loss of HPDE-C7K cells – cell-based, fluorescence, HTS, primary screen (AID 431); assay type: functional; conditions: Homo sapiens
[6] = molecular target: T2, CAAX prenyl protease 2 (Saccharomyces cerevisiae S288c, UniProt Q03530); assay type: biochemical
T2 sequence (Q03530 whole entry): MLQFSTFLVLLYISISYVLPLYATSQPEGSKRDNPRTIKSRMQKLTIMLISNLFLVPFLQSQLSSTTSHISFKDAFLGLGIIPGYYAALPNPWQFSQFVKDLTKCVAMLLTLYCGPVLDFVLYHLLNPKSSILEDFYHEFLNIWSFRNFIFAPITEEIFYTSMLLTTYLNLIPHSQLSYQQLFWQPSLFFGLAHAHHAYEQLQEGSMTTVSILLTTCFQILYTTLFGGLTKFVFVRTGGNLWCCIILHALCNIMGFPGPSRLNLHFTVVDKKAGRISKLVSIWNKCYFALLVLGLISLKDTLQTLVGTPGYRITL

[7] = cells
[8] = NIH3T3 cell viability loss – ATP luminescence, mouse fibroblasts, counter-screen, dose response (AID 2010); assay type: functional, cell-based;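 further: cells exposed to compound for about 90 hours before reading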
[9] = molecular target: T3, Oxysterols receptor LXR-beta (Homo sapiens, UniProt P55055); assay type: functional, cell-based;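 further: Cell-based luminescence dose-response assay of agonist activity at LXR, run as a confirmatory counterscreen to a daf-12 agonist screen; HEK293 cells with Gal4-LXR fusion and GAL4-driven luciferase reporter; agonist potency from rising luciferase signal of a Gal4-LXR reporter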
T3 sequence (P55055 whole entry): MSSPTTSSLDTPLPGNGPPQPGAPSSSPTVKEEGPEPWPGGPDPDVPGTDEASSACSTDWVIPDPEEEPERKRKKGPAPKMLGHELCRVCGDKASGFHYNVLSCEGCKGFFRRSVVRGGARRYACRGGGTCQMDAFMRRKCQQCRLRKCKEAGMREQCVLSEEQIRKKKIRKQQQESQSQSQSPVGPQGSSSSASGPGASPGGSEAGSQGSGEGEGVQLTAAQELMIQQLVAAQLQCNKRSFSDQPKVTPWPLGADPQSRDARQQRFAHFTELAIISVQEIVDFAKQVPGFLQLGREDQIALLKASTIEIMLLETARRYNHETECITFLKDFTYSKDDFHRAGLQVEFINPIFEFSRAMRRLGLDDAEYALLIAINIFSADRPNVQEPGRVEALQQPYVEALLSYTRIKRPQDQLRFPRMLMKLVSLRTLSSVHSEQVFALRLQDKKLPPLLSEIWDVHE

[10] = Trypanosoma cruzi growth suppression in host cells – NIH3T3 host cells, beta-gal luminescence, confirmation (AID 2044); assay type: functional, cell-based;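 further: intracellular parasites grown in NIH/3T3 mouse fibroblasts as host cells; luminescent beta-galactosidase reporter signal from transgenic T. cruzi replicating inside host cells; inhibitors lower the luminescence signal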
[11] = cells; assay type: functional, cell-based; conditions: HEK-CNG
[12] = molecular target: T4, Galanin receptor type 3 (Homo sapiens, UniProt O60755); experiment: Fluorescence-based cell-based primary high throughput dose response assay to identify antagonists of the Galanin Receptor 3 (GalR3).; assay type: functional
T4 sequence (O60755 whole entry): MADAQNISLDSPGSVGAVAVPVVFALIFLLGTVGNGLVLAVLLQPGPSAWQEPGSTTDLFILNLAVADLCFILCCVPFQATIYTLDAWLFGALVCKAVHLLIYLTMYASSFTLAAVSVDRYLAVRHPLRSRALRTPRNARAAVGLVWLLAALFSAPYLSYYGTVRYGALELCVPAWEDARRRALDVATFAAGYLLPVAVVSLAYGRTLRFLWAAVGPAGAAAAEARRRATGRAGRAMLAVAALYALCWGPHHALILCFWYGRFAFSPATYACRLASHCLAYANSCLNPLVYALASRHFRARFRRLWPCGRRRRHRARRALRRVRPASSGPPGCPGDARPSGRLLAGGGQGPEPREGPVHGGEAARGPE

[13] = cells; assay type: functional, cell-based
[14] = molecular target: T5, Protein RecA (Mycobacterium tuberculosis, UniProt P9WHJ3); experiment: Fluorescence Cell-Free Homogeneous Dose Retest to Identify Inhibitors of RecA-Intein Splicing Activity. [Related pubchem assays (depositor defined):AID2097, AID2223, AID489010, AID492950]; assay type: functional
T5 sequence (P9WHJ3 whole entry): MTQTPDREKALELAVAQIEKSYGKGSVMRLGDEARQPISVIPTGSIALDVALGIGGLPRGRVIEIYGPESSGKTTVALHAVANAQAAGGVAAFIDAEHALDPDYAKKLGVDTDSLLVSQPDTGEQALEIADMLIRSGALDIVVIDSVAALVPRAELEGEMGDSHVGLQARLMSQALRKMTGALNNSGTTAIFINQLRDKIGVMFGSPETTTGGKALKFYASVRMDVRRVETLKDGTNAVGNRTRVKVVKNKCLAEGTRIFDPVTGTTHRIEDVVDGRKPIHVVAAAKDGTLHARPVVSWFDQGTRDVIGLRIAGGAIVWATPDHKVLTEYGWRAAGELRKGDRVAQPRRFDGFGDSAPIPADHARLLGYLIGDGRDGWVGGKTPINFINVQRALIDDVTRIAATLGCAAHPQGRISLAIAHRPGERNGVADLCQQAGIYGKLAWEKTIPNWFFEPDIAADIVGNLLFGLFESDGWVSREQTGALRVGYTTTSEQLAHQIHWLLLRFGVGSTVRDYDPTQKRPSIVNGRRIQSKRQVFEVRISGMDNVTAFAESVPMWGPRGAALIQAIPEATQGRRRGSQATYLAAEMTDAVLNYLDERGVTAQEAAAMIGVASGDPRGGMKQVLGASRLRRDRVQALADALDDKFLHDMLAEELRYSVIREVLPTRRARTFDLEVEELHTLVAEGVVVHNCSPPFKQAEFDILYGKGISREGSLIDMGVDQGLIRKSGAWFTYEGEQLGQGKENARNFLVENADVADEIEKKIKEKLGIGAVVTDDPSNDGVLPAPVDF

[15] = cells; assay type: functional, cell-based; remark: listed apart in the source
[16] = fluconazole-exposed Candida albicans growth modulators – fluorescence, retest, confirmation (AID 2467); assay type: functional, cell-based
[17] = molecular target: T6, Replicative DNA helicase DnaB (Mycobacterium tuberculosis, UniProt P9WMR3); experiment: DnaB intein splicing inhibitors, dose response, biochemical, cell-free fluorescence (AID 449749); assay type: functional
T6 sequence (P9WMR3 whole entry): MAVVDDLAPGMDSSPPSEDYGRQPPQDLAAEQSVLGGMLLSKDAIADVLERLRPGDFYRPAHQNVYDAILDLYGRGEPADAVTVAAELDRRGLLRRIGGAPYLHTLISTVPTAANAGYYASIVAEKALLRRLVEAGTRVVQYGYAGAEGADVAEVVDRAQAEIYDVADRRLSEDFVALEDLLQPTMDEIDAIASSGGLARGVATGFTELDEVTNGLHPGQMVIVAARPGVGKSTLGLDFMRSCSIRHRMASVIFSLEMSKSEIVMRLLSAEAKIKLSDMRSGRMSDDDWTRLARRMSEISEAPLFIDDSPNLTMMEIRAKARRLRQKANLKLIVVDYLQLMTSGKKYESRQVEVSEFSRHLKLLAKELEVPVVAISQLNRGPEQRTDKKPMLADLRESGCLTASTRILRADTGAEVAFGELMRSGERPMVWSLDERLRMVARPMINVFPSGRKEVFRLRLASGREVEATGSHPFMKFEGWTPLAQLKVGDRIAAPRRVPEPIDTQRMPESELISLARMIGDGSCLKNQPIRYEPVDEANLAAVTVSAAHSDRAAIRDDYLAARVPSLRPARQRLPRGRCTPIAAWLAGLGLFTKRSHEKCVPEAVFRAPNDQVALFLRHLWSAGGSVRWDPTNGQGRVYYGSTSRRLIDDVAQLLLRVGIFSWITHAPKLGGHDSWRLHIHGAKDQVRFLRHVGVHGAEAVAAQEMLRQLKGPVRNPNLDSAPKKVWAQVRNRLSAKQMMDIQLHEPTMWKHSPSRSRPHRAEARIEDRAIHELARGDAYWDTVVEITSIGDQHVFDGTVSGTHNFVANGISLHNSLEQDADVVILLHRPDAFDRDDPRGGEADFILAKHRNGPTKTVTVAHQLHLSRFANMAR

[18] = tested on: HEK293; experiment: EBV LMP1 TES2 canonical NF-kB signalling blockers – cell-based, HEK293, luciferase, cherry-pick, dose response (AID 588343); assay type: functional; conditions: Homo sapiens
[19] = NIH-3T3 fibroblast cytotoxicity, dose response, cytotoxicity control, cell-based, fluorescence, Alamar Blue, secondary assay (AID 2327); assay type: functional;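 further: NIH-3T3 mouse fibroblasts cultured with fluconazole at 8 µg/mL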
[20] = molecular target: Nonstructural protein 1 (Influenza A virus, UniProt Q194T2); assay type: functional, Influenza A virus (A/California/07/2009(H1N1))
Sequence of Nonstructural protein 1 (Q194T2 whole entry): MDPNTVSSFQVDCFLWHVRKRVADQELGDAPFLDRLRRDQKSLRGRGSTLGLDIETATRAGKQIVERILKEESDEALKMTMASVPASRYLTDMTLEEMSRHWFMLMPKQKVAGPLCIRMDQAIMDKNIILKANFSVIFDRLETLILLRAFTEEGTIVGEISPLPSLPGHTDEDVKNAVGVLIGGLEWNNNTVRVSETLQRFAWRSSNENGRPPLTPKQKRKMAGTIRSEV

[21] = molecular target: T7, Fatty acid synthase (Homo sapiens, UniProt P49327); experiment: inhibition of human FAS-TE enzyme activity – biochemical, endpoint fluorescence intensity, uHTS hits, dose response (AID 624327); assay type: functional;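 further: fluorescence from hydrolysis of an O-methyl fluorescein acyl ester substrate by the enzyme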
T7 sequence (P49327 whole entry): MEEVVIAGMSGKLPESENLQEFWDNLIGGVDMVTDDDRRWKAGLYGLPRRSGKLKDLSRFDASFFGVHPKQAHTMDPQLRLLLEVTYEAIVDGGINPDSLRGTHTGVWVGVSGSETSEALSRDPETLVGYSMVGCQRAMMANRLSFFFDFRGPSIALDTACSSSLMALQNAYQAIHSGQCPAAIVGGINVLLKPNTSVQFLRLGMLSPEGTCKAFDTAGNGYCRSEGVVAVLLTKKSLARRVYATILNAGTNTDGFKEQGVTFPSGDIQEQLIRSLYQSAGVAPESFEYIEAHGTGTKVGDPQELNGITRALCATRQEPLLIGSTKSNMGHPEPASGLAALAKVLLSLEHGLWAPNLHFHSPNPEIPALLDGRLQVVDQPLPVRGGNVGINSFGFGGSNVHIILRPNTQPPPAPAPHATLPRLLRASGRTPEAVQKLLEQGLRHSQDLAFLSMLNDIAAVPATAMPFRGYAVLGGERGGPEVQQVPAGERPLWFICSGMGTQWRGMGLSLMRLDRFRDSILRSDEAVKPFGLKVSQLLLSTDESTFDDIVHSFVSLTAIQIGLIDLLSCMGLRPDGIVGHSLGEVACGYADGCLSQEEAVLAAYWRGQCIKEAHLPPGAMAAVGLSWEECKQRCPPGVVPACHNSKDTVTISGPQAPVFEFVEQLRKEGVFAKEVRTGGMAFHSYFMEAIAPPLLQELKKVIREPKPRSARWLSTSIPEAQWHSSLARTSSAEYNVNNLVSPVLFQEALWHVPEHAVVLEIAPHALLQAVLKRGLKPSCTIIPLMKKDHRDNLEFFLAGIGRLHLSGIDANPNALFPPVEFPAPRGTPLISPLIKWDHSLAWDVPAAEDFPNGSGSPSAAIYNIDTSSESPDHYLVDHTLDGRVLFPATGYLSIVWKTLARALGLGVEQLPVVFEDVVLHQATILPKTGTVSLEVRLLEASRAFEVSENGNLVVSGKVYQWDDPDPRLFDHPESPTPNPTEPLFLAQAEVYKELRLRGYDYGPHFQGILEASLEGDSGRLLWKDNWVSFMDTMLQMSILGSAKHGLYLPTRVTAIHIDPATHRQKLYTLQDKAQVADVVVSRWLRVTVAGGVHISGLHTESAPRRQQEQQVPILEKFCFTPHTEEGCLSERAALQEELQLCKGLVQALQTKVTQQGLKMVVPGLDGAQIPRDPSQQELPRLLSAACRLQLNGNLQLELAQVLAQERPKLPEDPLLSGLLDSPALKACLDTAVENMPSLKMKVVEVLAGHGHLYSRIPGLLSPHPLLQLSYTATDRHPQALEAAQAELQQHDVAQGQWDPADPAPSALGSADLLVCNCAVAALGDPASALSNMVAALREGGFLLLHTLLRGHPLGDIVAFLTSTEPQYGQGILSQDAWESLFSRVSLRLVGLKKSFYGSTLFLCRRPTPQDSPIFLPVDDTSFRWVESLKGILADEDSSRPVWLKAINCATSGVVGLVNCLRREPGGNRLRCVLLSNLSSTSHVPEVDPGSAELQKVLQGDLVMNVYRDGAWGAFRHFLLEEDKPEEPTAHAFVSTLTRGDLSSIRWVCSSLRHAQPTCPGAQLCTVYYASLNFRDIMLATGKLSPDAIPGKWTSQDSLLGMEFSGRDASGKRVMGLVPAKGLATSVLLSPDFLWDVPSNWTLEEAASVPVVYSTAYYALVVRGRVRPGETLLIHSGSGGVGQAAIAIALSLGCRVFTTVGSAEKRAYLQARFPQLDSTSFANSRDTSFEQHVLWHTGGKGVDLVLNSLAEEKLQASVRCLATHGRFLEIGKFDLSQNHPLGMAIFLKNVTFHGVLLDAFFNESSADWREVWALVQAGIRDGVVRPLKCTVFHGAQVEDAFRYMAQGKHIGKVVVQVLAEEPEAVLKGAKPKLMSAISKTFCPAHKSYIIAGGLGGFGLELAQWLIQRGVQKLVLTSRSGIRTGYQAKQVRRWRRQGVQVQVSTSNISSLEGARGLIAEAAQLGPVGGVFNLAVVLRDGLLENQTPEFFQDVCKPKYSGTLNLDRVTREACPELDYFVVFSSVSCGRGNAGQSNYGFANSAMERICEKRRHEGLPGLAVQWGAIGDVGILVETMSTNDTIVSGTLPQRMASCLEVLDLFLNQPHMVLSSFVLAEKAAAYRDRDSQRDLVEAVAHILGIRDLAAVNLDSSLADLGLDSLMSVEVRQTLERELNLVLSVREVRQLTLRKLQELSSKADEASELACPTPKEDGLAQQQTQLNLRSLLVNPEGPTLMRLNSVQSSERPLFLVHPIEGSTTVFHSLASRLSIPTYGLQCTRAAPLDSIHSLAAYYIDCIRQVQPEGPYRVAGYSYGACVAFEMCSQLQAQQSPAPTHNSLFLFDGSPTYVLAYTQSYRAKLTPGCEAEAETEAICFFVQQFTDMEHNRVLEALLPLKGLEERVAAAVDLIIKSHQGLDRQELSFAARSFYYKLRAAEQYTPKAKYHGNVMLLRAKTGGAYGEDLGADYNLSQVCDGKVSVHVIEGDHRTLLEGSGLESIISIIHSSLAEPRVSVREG

[22] = molecular target: T8, Heat shock factor protein 1 (Mus musculus, UniProt P38532); experiment: decrease of HSF1-responsive luciferase luminescence – cell-based, NIH3T3, dose retest, confirmation (AID 2382); assay type: functional;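 further: NIH3T3 fibroblasts with HSF1-driven luciferase reporter stressed by proteasome inhibitor MG132; luminescence from HSF1-driven luciferase expression after 8 hours of MG132 stress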
T8 sequence (P38532 whole entry): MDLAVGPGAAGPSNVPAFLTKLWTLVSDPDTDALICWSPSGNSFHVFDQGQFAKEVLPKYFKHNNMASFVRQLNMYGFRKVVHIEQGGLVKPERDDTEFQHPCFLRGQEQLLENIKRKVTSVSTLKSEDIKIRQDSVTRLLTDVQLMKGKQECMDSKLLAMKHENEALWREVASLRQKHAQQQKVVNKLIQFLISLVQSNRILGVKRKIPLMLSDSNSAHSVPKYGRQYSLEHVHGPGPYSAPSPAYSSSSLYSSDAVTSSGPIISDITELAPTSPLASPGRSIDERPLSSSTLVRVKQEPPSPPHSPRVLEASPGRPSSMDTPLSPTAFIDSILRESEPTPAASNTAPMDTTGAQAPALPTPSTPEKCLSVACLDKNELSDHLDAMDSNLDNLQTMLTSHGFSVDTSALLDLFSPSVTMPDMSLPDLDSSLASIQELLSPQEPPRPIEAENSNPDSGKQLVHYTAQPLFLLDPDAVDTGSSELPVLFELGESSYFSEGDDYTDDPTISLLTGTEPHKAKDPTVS

[23] = molecular target: T7, Fatty acid synthase; experiment: inhibition of human FAS-TE enzyme activity – biochemical, kinetic fluorescence intensity, dose response (AID 624326); assay type: functional;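 further: rate of fluorescence rise from hydrolysis of a fluorogenic O-methyl fluorescein ester substrate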
[24] = microbe, parasite or virus in culture; assay type: functional; conditions: Mycobacterium tuberculosis
[25] = molecular target: Induced myeloid leukemia cell differentiation protein Mcl-1 (Homo sapiens, UniProt Q07820); assay type: functional
Sequence of Induced myeloid leukemia cell differentiation protein Mcl-1 (Q07820 whole entry): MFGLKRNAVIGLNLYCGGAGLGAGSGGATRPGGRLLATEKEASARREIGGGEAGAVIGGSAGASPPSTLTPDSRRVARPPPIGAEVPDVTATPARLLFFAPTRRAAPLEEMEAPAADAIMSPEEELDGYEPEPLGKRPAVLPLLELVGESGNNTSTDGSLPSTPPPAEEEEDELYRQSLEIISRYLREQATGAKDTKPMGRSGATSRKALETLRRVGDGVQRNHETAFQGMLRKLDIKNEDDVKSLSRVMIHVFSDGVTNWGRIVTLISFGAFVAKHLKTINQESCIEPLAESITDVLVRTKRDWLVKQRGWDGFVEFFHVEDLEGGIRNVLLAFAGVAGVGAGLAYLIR

Cc1ccc(-c2nnc(N3CCN(C(=O)CSc4nc[nH]n4)CC3)c3ccccc23)cc1
AC50 [1]: 1.07 µM (active)

CC(Oc1ccc2ccc(=O)oc2c1)C(=O)N1CCOCC1 (stereo not given)
AC50 [1]: 6.85 µM (active)

Cc1cc2oc3c(c(=O)c2cc1C)C(c1cccc(Br)c1)N(Cc1ccco1)C3=O (stereo not given)
EC50 [2]: 9.43 µM (active)
EC50 [3]: 8.39 µM (active)
EC50 [4]: > 20 µM (not active)
EC50 [5]: > 20 µM (not active)

CCOc1ccc(-c2c(C(=O)N/N=C/c3cccs3)nnn2-c2nonc2N)cc1
AC50 [6]: 5.5 µM (active)

Cc1cccc(-c2cc3c(N=O)c4ccccc4c-3[nH]n2)c1
EC50 [7]: > 67.5 µM (inactive)
EC50 [8]: > 60 µM (not active)
EC50 [9]: > 67.5 µM (inactive)
EC50 [10]: 4.86 µM (active)

O=C(NCCO)c1nsnc1NCCCl
EC50 [11]: > 29.9 µM (inactive)
IC50 [12]: > 29.9 µM (inactive)

COc1ccc2oc(C(=O)Nc3ccccn3)c(C)c2c1
EC50 [7]: > 67.5 µM (inactive)
EC50 [9]: > 67.5 µM (inactive)

CCN(CC)c1ccc(/C=N/Nc2nc(C)cc(O)n2)c(O)c1
EC50 [13]: > 350 µM (not active)
EC50 [14]: 28 µM (active)
EC50 [15]: 6.92 µM (active)
EC50 [16]: 1.09 µM (active)
AC50 [17]: > 380 µM (inactive)
AC50 [18]: 1.75 µM (active)
EC50 [19]: 3.13 µM (active)

Cc1ccc(Cc2c(C)nc3nc(SCC(=O)NCCCN4CCCCC4)nn3c2C)cc1
AC50 [1]: 11.1 µM (active)

COc1ccc(N=C(S)Nc2ccccn2)c(OC)c1
EC50 [13]: 53.6 µM (active)
EC50 [15]: > 350 µM (not active)

COc1ccc(C2CC(c3cccs3)=NN2C(=O)CSc2nc(=O)n3cc(C)ccc3n2)cc1 (stereo not given)
EC50 [13]: > 350 µM (not active)
EC50 [15]: > 350 µM (not active)

COc1cc(/C=N/NC(=O)c2cncc(Br)c2)cc([N+](=O)[O-])c1O
IC50 [20]: 4.26 µM (active)
IC50 [21]: 18.7 µM (active)
EC50 [22]: 0.977 µM (active)
IC50 [23]: 9.66 µM (active)

N=C(NOC(=O)c1cccs1)c1ccc(Cl)cc1
EC50 [13]: 7.41 µM (active)
EC50 [15]: > 350 µM (not active)

Oc1ccccc1NCC(O)Cn1ccc2ccccc21 (stereo not given)
CC50 [24]: > 40 µM (active)
IC50 [25]: 4.49 µM (active)
EC50 [4]: 12.8 µM (active)
EC50 [5]: 13.2 µM (active)

O=C(c1ccccc1F)N1CC[C@@H]2[C@H](CO)Nc3ccc(Br)cc3[C@@H]21
AC50 [1]: 1.81 µM (active)

COc1cccc(/C=N/NC(=O)CNC(=O)C(c2ccccc2)c2ccccc2)c1O
EC50 [13]: > 350 µM (not active)
EC50 [15]: 30.6 µM (active)
